Experimental data published in ChEMBL document CHEMBL1201862, “PubChem BioAssay data set” (2004).
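Method: 48-hour compound exposure of cells in 96-well plates, five concentrations, linear interpolation of endpoints. GI50 is the concentration that inhibits growth by half.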 Calls of active or inactive are those of the source. Rule as the data show it: active = GI50 up to about 1.1 µM and inactive = higher.

Assays:
Assay in all cases: NCI-60 cell line screen, 48 h
Malme-3M = system: Malme-3M
OVCAR-4 = system: OVCAR-4
SNB-75 = system: SNB-75
SR = system: SR
ACHN = system: ACHN
COLO 205 = system: COLO 205
SF-268 = system: SF-268
SF-539 = system: SF-539
SNB-78 = system: SNB-78
T47D = system: T47D
CAKI-1 = system: CAKI-1
786-0 = system: 786-0
KM12 = system: KM12
SF-295 = system: SF-295
RXF 393 = system: RXF 393
EKVX = system: EKVX
MOLT-4 = system: MOLT-4
NCI-H226 = system: NCI-H226
RPMI-8226 = system: RPMI-8226
BT-549 = system: BT-549

Structure (SMILES)	GI50 (Malme-3M)	GI50 (OVCAR-4)	GI50 (SNB-75)	GI50 (SR)	GI50 (ACHN)	GI50 (COLO 205)	GI50 (SF-268)	GI50 (SF-539)	GI50 (SNB-78)	GI50 (T47D)	GI50 (CAKI-1)	GI50 (786-0)	GI50 (KM12)	GI50 (SF-295)	GI50 (RXF 393)	GI50 (EKVX)	GI50 (MOLT-4)	GI50 (NCI-H226)	GI50 (RPMI-8226)	GI50 (BT-549)
CCN(CC)CCCNc1ccc2ncn3c4ccc(O)cc4c(=O)c1c23	4780 nM (inactive)	1010 nM (active)	871 nM (active)	171 nM (active)	272 nM (active)	908 nM (active)	1660 nM (inactive)	2900 nM (inactive)	8650 nM (inactive)	> 10000 nM (inactive)	365 nM (active)	643 nM (active)	3850 nM (inactive)	1630 nM (inactive)	140 nM (active)	7410 nM (inactive)	41.1 nM (active)	214 nM (active)	2060 nM (inactive)	–
COc1ccc2nc3ccccc3c(NCCCN(C)CCCl)c2c1	449 nM (active)	324 nM (active)	224 nM (active)	< 12.8 nM (active)	105 nM (active)	147 nM (active)	155 nM (active)	249 nM (active)	156 nM (active)	35.8 nM (active)	231 nM (active)	104 nM (active)	426 nM (active)	371 nM (active)	284 nM (active)	938 nM (active)	< 13.3 nM (active)	226 nM (active)	81.7 nM (active)	1220 nM (inactive)
C[C@@H]1CC(=O)C2CCCC1C2=O (stereo partly specified)	> 100000 nM (inactive)	> 100000 nM (inactive)	> 100000 nM (inactive)	> 100000 nM (inactive)	> 100000 nM (inactive)	45700 nM (inactive)	> 100000 nM (inactive)	> 100000 nM (inactive)	> 100000 nM (inactive)	–	> 100000 nM (inactive)	> 100000 nM (inactive)	> 100000 nM (inactive)	> 100000 nM (inactive)	> 100000 nM (inactive)	> 100000 nM (inactive)	> 100000 nM (inactive)	> 100000 nM (inactive)	> 100000 nM (inactive)	–
NC(CS)C(=O)NCCNc1ccc(NCCNC(=O)C(N)CS)c2c1C(=O)c1c(O)ccc(O)c1C2=O (stereo unspecified)	65.3 nM (active)	204 nM (active)	23.6 nM (active)	< 1 nM (active)	8.65 nM (active)	422 nM (active)	24.6 nM (active)	25.9 nM (active)	214 nM (active)	166 nM (active)	24.3 nM (active)	6.62 nM (active)	135 nM (active)	7.82 nM (active)	191 nM (active)	320 nM (active)	< 1 nM (active)	8.47 nM (active)	41.7 nM (active)	327 nM (active)
O=C(/C=C/c1ccc(Br)cc1)c1ccc(NCc2nc3ccccc3[nH]2)cc1	25000 nM (inactive)	14400 nM (inactive)	4340 nM (inactive)	5690 nM (inactive)	17500 nM (inactive)	2530 nM (inactive)	8180 nM (inactive)	10000 nM (inactive)	2980 nM (inactive)	–	9680 nM (inactive)	5250 nM (inactive)	2670 nM (inactive)	4610 nM (inactive)	4350 nM (inactive)	> 30200 nM (inactive)	3310 nM (inactive)	10900 nM (inactive)	1930 nM (inactive)	–
C[N+](C)(C)CC1CCC(C[N+](C)(C)C)C1=O (stereo unspecified)	1080 nM (active)	2380 nM (inactive)	1950 nM (inactive)	400 nM (active)	1820 nM (inactive)	–	–	7740 nM (inactive)	2400 nM (inactive)	3420 nM (inactive)	668 nM (active)	1910 nM (inactive)	4650 nM (inactive)	20500 nM (inactive)	1910 nM (inactive)	–	–	12900 nM (inactive)	328 nM (active)	17000 nM (inactive)
